From patent US20110044938A1 (NYCOMED GMBH, priority 2006, published 2011)

What was measured:
[1] = tested on: RKO (RKOp27) human colon adenocarcinoma cells; test: Alamar Blue cell viability assay, anti-proliferative/cytotoxic activity on proliferating RKO subclones; assay type: cell-based; details: RKOp27, 72 h, RKO p27 uninduced (proliferating) cells, value = class bound given in Table A, read-out: −logIC50 RKO p27 uninduced (proliferating) (converted)
How it was run: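 RKOp27 subclones (5000 cells/well) were exposed 24 h after seeding to semi-log compound dilutions in DMEM with 10% FCS, in quadruplicate, for 72 h at 37 °C. Viability was read by Alamar Blue fluorescence (544/590 nm) relative to untreated cells (1% DMSO medium). IC50 came from concentration-effect curves and is reported as −log IC50 [mol/l].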

[2] = tested on: subclones of RKO colon adenocarcinoma cells (RKOp27 or RKOp21) arrested by Ponasterone A; test: Alamar Blue cell viability assay, cell cycle specific mode of action: cells arrested by ectopic p27Kip1 induced by Ponasterone A versus proliferating cells; assay type: cell-based; details: Homo sapiens, RKO p27 induced (arrested) cells, 10 μM Ponasterone A, 72 hours, value = class bound given in Table A, read-out: −logIC50 RKO p27 induced (arrested) (converted)
How it was run: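 RKOp27 or RKOp21 cells, 15000/well in DMEM/10% FCS, either arrested by p27Kip1 induced with 10 μM Ponasterone A or proliferating without inducer; compound added after 24 h, 72 h at 37° C. Alamar Blue fluorescence (544/590 nm), viability as % of untreated cells; −log IC50 reported.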

SMILES	IC50 [1] [nM]	IC50 [2] [nM]
CCOc1ccccc1CCC(=O)Nc1sc2c(c1C#N)CCC(OC(=O)NCc1csc(C)n1)C2 (stereo not shown) [Example 254, (2-Methyl-thiazol-4-ylmethyl)-carbamic acid 3-cyano-2-[3-(2-ethoxy-phenyl)-propanoylamino]-4,5,6,7-tetrahydro-benzo[b]thiophen-6-yl ester]	≤ 501	≥ 100000
N#Cc1c(NC(=O)/C=C/c2cccnc2)sc2c1CCC(OC(=O)NCCO)C2 (stereo not shown) [Example 23, (2-Hydroxy-ethyl)-carbamic acid 3-cyano-2-((E)-3-pyridin-3-yl-allanoylamino)-4,5,6,7-tetrahydro-benzo[b]thiophen-6-yl ester]	501 to 2000	≥ 100000
